# The supplement of paper PMC11208160
# Assay: recombinant barcode read abundance after kanamycin selection (control-corrected) (log10(CPM+1)); higher = more efficient recombination; sequences stand for … in AGTGCAGAGAAAATCGGCCAGTTTTCTCTGCCTGCAGTCCGCATGCCGT…AGATTTATGCAGCGGACTGCCTTTCTCCCAAAGTGATAAACCGGACAGTATCATGGACCGGTTTTCCCGGTAATCCGTATTTGCAAGGTTGGTTTCACT; site = the 11-nt target
# Method in brief: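 Recombination efficiency was calculated from barcode counts at recombinant junctions, normalized to counts per million, averaged and corrected by the control. Each value is given as log10(CPM+1). The constructs were Gibson-cloned oligos (promoter, target, barcode, J23119-driven first 104 bridge RNA bases) in a vector with the remaining 73 bp and a T7-inducible recombinase, co-electroporated into E. coli with a donor plasmid and plated in duplicate on chloramphenicol/ampicillin LB agar (control) or chloramphenicol/ampicillin/kanamycin with 0.1 mM IPTG.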
# 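Note: IS621 recombinase and bridge RNA in Escherichia coli cells.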
row,Sequence,recombinant barcode read abundance (log10)
1,GTCGGAGCTTGGGTTCTAACCTGTTGCGG (site GTCGGAGCTCT),1.29
2,GTCGGAGCTTGGGTTCTAACCTGTTGCTG (site GTCGGAGCTCA),0.757
3,GTCGGAGCTTGGGTTCTAACCTGTTGCTG (site GTCGGAGCTCC),0.511
4,GTCGGAGCTTGGGTTCTAACCTGTTGCTG (site GTCGGAGCTCG),0.353
5,GTCGGAGCTTGGGTTCTAACCTGTTGCTG (site GTCGGAGCTCT),0.737
6,GTCGGCACTTGGGTTCTAACCTGTTGCCT (site GTCGGAACTAG),0.359
7,GTCGGCACTTGGGTTCTAACCTGTTGCCT (site GTCGGCACTAG),0.491
8,GTCGGCACTTGGGTTCTAACCTGTTGCCT (site GTCGGGACTAG),0.653
9,GTCGGCACTTGGGTTCTAACCTGTTGCCT (site GTCGGTACTAG),0.221
10,GTCGGCGCTTGGGTTCTAACCTGTTGCCT (site GTAGGCGCTAG),0.107
11,GTCGGCGCTTGGGTTCTAACCTGTTGCCT (site GTCGGCGCTAG),0.912
12,GTCGGCGCTTGGGTTCTAACCTGTTGCCT (site GTGGGCGCTAG),0.531
13,GTCGGCGCTTGGGTTCTAACCTGTTGCCT (site GTTGGCGCTAG),0.256
14,GTCGGGACTTGGGTTCTAACCTGTTGCCT (site GTCGGAACTAG),0.863
15,GTCGGGACTTGGGTTCTAACCTGTTGCCT (site GTCGGCACTAG),0.113
16,GTCGGGACTTGGGTTCTAACCTGTTGCCT (site GTCGGGACTAG),1.51
17,GTCGGGACTTGGGTTCTAACCTGTTGCCT (site GTCGGTACTAG),0.0446
18,GTCGTAGCTTGGGTTCTAACCTGTTGCCT (site GACGTAGCTAG),0.464
19,GTCGTAGCTTGGGTTCTAACCTGTTGCCT (site GCCGTAGCTAG),0.0842
20,GTCGTAGCTTGGGTTCTAACCTGTTGCCT (site GGCGTAGCTAG),0.116
21,GTCGTAGCTTGGGTTCTAACCTGTTGCCT (site GTCGTAGCTAG),0.256
22,GTCTAAGCTTGGGTTCTAACCTGTTGCCT (site GTCTAAGCTAG),0.171
23,GTCTAAGCTTGGGTTCTAACCTGTTGCCT (site GTCTGAGCTAG),0.0375
24,GTCTACTCTTGGGTTCTAACCTGTTGCTG (site GTCTACTCTCA),1.65
25,GTCTACTCTTGGGTTCTAACCTGTTGCTG (site GTCTTCTCTAA),0.0134
26,GTCTCATCTTGGGTTCTAACCTGTTGCCT (site GTCTAATCTAG),0.0787

row,Sequence,recombinant barcode read abundance (log10)
1,GTCTCATCTTGGGTTCTAACCTGTTGCCT (site GTCTCATCTAG),0.154
2,GTCTCATCTTGGGTTCTAACCTGTTGCCT (site GTCTGATCTAG),0.0892
3,GTCTCATCTTGGGTTCTAACCTGTTGCCT (site GTCTTATCTAG),0.0289
4,GTCTCGGCTTGGGTTCTAACCTGTTGCTG (site GGGTCGGCTCA),0.0356
5,GTCTCGGCTTGGGTTCTAACCTGTTGCTG (site GTCTCGGCTCA),0.0917
6,GTCTCTACTTGGGTTCTAACCTGTTGCCG (site GTCACTACTCG),0.234
7,GTCTCTACTTGGGTTCTAACCTGTTGCCG (site GTCCCTACTCG),0.593
8,GTCTCTACTTGGGTTCTAACCTGTTGCCG (site GTCGCTACTCG),0.117
9,GTCTCTACTTGGGTTCTAACCTGTTGCCG (site GTCTCTACTCG),0.0442
10,GTCTCTTCTTGGGTTCTAACCTGTTGCTA (site GTCTCGTCTAA),0.0282
11,GTCTCTTCTTGGGTTCTAACCTGTTGCTA (site GTCTCTTCTTA),0.306
12,GTCTTACCTTGGGTTCTAACCTGTTGCCT (site GTCATACCTAG),0.0521
13,GTCTTACCTTGGGTTCTAACCTGTTGCCT (site GTCCTACCTAG),1.21
14,GTCTTACCTTGGGTTCTAACCTGTTGCCT (site GTCGTACCTAG),0.098
15,GTCTTACCTTGGGTTCTAACCTGTTGCCT (site GTCTTACCTAG),1.34
16,GTCTTACCTTGGGTTCTAACCTGTTGCTT (site GTCTTACCTAA),0.74
17,GTCTTACCTTGGGTTCTAACCTGTTGCTT (site TTCATACCTAA),0.128
18,GTCTTCCCTTGGGTTCTAACCTGTTGCCG (site ATCTTACCTCG),0.0566
19,GTCTTCCCTTGGGTTCTAACCTGTTGCCG (site GTCTTCCCTCG),1.5
20,GTCTTCCCTTGGGTTCTAACCTGTTGCGT (site GTCATGCCTAC),0.0371
21,GTCTTCCCTTGGGTTCTAACCTGTTGCGT (site GTCTTCCCTAC),1.74
22,GTGAAGCCTTGGGTTCTAACCTGTTGCCT (site ATGAAGCCTAG),0.826
23,GTGAAGCCTTGGGTTCTAACCTGTTGCCT (site CTGAAGCCTAG),0.464
24,GTGAAGCCTTGGGTTCTAACCTGTTGCCT (site GTGAAGCCTAG),1.48
25,GTGAAGCCTTGGGTTCTAACCTGTTGCCT (site TTGAAGCCTAG),0.421
26,GTGACCGCTTGGGTTCTAACCTGTTGCCT (site GTAACCGCTAG),2

row,Sequence,recombinant barcode read abundance (log10)
1,GTGACCGCTTGGGTTCTAACCTGTTGCCT (site GTCACCGCTAG),0.235
2,GTGACCGCTTGGGTTCTAACCTGTTGCCT (site GTGACCGCTAG),1.89
3,GTGACCGCTTGGGTTCTAACCTGTTGCCT (site GTTACCGCTAG),0.59
4,GTGACCTCTTGGGTTCTAACCTGTTGCTG (site GGGACCTCTGA),0.0723
5,GTGACCTCTTGGGTTCTAACCTGTTGCTG (site GTGACCTCTCA),1.51
6,GTGAGGCCTTGGGTTCTAACCTGTTGCCT (site ATGAGGCCTAG),1.19
7,GTGAGGCCTTGGGTTCTAACCTGTTGCCT (site CTGAGGCCTAG),0.151
8,GTGAGGCCTTGGGTTCTAACCTGTTGCCT (site GTGAGGCCTAG),0.153
9,GTGAGGCCTTGGGTTCTAACCTGTTGCCT (site TTGAGGCCTAG),0.0445
10,GTGAGGTCTTGGGTTCTAACCTGTTGCCT (site GTGAGGTCTAA),0.107
11,GTGAGGTCTTGGGTTCTAACCTGTTGCCT (site GTGAGGTCTAC),0.343
12,GTGAGGTCTTGGGTTCTAACCTGTTGCCT (site GTGAGGTCTAG),1.62
13,GTGAGGTCTTGGGTTCTAACCTGTTGCCT (site GTGAGGTCTAT),0.442
14,GTGAGTCCTTGGGTTCTAACCTGTTGCGT (site GTGAGTCCTAC),2.61
15,GTGAGTCCTTGGGTTCTAACCTGTTGCGT (site GTTGGTCCTAC),0.0363
16,GTGATCCCTTGGGTTCTAACCTGTTGCTG (site GTGAACTCTCA),0.0648
17,GTGATCCCTTGGGTTCTAACCTGTTGCTG (site GTGATCCCTCA),1.87
18,GTGCACACTTGGGTTCTAACCTGTTGCGG (site GTGCACACTCC),2.44
19,GTGCACACTTGGGTTCTAACCTGTTGCGG (site GTGCACTCTCC),0.322
20,GTGCAGACTTGGGTTCTAACCTGTTGCCT (site GTACAGACTAG),2.5
21,GTGCAGACTTGGGTTCTAACCTGTTGCCT (site GTCCAGACTAG),0.483
22,GTGCAGACTTGGGTTCTAACCTGTTGCCT (site GTGCAGACTAG),2.05
23,GTGCAGACTTGGGTTCTAACCTGTTGCCT (site GTTCAGACTAG),0.367
24,GTGCCCGCTTGGGTTCTAACCTGTTGCGG (site GTGCCCGCTCC),1.11
25,GTGCCCGCTTGGGTTCTAACCTGTTGCGG (site GTGCCCTCTCG),0.205
